Measurements published in ChEMBL document CHEMBL5055658, “Discovery of a Highly Potent and Selective Degrader Targeting Hematopoietic Prostaglandin D Synthase via In Silico Design” (J Med Chem, 2021).
Active and inactive are the calls of the source. The calls are words filed in the database; no cut-off is given here.

Tests used:
[1] = biological target: Hematopoietic prostaglandin D synthase (Homo sapiens, UniProt O60760); experiment: Inhibition of H-PGDS (unknown origin) using fluorescent probe by competition binding assay
Chain of Hematopoietic prostaglandin D synthase (O60760 whole entry): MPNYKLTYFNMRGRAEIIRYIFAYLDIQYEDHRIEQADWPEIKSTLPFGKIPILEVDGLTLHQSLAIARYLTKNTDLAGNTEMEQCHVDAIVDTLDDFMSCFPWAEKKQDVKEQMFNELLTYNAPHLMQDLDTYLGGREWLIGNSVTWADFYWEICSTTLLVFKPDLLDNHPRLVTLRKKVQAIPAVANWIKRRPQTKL

[2] = biological target: T1, Protein cereblon/Hematopoietic prostaglandin D synthase (Homo sapiens, UniProt O60760+Q96SW2); experiment: PROTAC activity at H-PGDS/CRBN in human KU812 cells assessed as H-PGDS degradation measured after 6 hrs by Western blot analysis; assay type: cell-based; conditions: for DC50: ku812 cell line
[3] = biological target: T1, Protein cereblon/Hematopoietic prostaglandin D synthase; experiment: PROTAC activity at H-PGDS/CRBN in human KU812 cells assessed as H-PGDS degradation measured after 24 hrs by Western blot analysis; assay type: cell-based; conditions: KU812 cell line
Target sequence in this assay (O60760 whole entry, looked up): as the sequence (O60760 whole entry) above
Target sequence in this assay (Q96SW2 whole entry, looked up): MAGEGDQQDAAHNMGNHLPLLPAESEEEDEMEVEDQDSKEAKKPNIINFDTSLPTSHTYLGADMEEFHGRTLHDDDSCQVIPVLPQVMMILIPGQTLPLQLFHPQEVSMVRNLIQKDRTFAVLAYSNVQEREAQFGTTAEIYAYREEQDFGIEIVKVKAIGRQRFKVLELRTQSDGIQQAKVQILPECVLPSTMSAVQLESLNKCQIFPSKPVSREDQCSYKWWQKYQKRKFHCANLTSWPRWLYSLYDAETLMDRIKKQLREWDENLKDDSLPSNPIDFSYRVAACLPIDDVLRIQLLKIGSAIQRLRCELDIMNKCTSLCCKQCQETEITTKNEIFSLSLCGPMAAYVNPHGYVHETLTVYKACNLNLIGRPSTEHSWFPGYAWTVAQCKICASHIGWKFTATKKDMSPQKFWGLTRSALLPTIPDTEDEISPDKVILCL

[4] = biological target: T1, Protein cereblon/Hematopoietic prostaglandin D synthase; experiment: PROTAC activity at H-PGDS/CRBN in human MEG01s cells assessed as H-PGDS degradation measured after 6 to 24 hrs by Western blot analysis; assay type: cell-based; conditions: time 6-24 hrs
Target sequence in this assay (O60760 whole entry, looked up): as the sequence (O60760 whole entry) above
Target sequence in this assay (Q96SW2 whole entry, looked up): as the sequence (Q96SW2 whole entry, looked up) above

KU812 [5] = experiment: Effect on H-PGDS mRNA level in human KU812 cells measured up to 10000 pM incubated for 6 hrs by quantitative RT-PCR analysis; assay type: functional, cell-based
[6] = biological target: T1, Protein cereblon/Hematopoietic prostaglandin D synthase; experiment: PROTAC activity at H-PGDS/CRBN in human KU812 cells assessed as H-PGDS degradation in presence of pomalidomide measured after 6 hrs by Western blot analysis; assay type: cell-based; conditions: KU812 cell line
Target sequence in this assay (O60760 whole entry, looked up): as the sequence (O60760 whole entry) above
Target sequence in this assay (Q96SW2 whole entry, looked up): as the sequence (Q96SW2 whole entry, looked up) above

[7] = biological target: T1, Protein cereblon/Hematopoietic prostaglandin D synthase; experiment: PROTAC activity at H-PGDS/CRBN in human KU812 cells assessed as H-PGDS degradation in presence of MG132 at 100 pM measured after 6 hrs by Western blot analysis; assay type: cell-based; conditions: KU812 cell line
Target sequence in this assay (O60760 whole entry, looked up): as the sequence (O60760 whole entry) above
Target sequence in this assay (Q96SW2 whole entry, looked up): as the sequence (Q96SW2 whole entry, looked up) above

[8] = biological target: T1, Protein cereblon/Hematopoietic prostaglandin D synthase; experiment: PROTAC activity at H-PGDS/CRBN in human KU812 cells assessed as H-PGDS degradation in presence of MLN7243 at 100 pM measured after 6 hrs by Western blot analysis; assay type: cell-based; conditions: KU812 cell line
Target sequence in this assay (O60760 whole entry, looked up): as the sequence (O60760 whole entry) above
Target sequence in this assay (Q96SW2 whole entry, looked up): as the sequence (Q96SW2 whole entry, looked up) above

[9] = biological target: T1, Protein cereblon/Hematopoietic prostaglandin D synthase; experiment: PROTAC activity at H-PGDS/CRBN in human KU812 cells assessed as reduction in H-PGDS level at 100 pM measured after 6 hrs by Western blot analysis relative to control; assay type: cell-based; design: scale not given: the % may be the effect or the level left; conditions: KU812 cell line
Target sequence in this assay (O60760 whole entry, looked up): as the sequence (O60760 whole entry) above
Target sequence in this assay (Q96SW2 whole entry, looked up): as the sequence (Q96SW2 whole entry, looked up) above

[10] = biological target: T1, Protein cereblon/Hematopoietic prostaglandin D synthase; experiment: PROTAC activity at H-PGDS/CRBN in human KU812 cells assessed as reduction in H-PGDS level at 10 pM measured after 6 hrs by Western blot analysis relative to control; assay type: cell-based; design: scale not given: the % may be the effect or the level left; conditions: KU812 cell line
KU812 [11] = experiment: Suppression of PGD2 production in human KU812 cells measured in presence of compound 43 up to 3000 pM incubated for 6 hrs by LC-MS analysis; assay type: functional, cell-based

Compound	inhibition [1]	DC50 [2]	IC50 [1]	Activity (KU812 [11])	further results
O=C1CCC(N2C(=O)c3cccc(NCCNC(=O)C4CCN(c5ccc(NC(=O)c6cnc(Oc7ccccc7)nc6)cc5)CC4)c3C2=O)C(=O)N1 (stereo not given)	inactive	–	–	–	–
O=C1CCC(N2C(=O)c3cccc(N4CCN(C(=O)C5CCN(c6ccc(NC(=O)c7cnc(Oc8ccccc8)nc7)cc6)CC5)CC4)c3C2=O)C(=O)N1 (stereo not given)	–	0.0173 nM	170 nM	Active	Activity [3]: inactive; Activity [4]: Active; Activity (KU812 [5]): inactive; Activity [6]: inactive; Activity [7]: inactive; Activity [8]: inactive; Activity [9]: 30.8%; Activity [10]: 12.9%
Nc1cccc2c1C(=O)N(C1CCC(=O)NC1=O)C2=O (stereo not given)	–	–	–	inactive	–
CN1C(=O)CCC(N2C(=O)c3cccc(N4CCN(C(=O)C5CCN(c6ccc(NC(=O)c7cnc(Oc8ccccc8)nc7)cc6)CC5)CC4)c3C2=O)C1=O (stereo not given)	–	0.024 nM	140 nM	Active	–
O=C(Nc1ccc(N2CCC(C(=O)N3CCOCC3)CC2)cc1)c1cnc(Oc2ccccc2)nc1	–	–	170 nM	Active	–
O=C1CCC(N2C(=O)c3cccc(N4CCN(c5ccc(NC(=O)c6cnc(Oc7ccccc7)nc6)cc5)CC4)c3C2=O)C(=O)N1 (stereo not given)	inactive	–	–	–	Activity ([2]; KU812 cell line): inactive
